# According to US20230085307A1, “PYRIDAZINONE COMPOUND AND HERBICIDE” (NISSAN CHEMICAL CORPORATION, priority 2019, published 2023):
# Assays:
# barnyard grass [1] = test: Test Example 4: herbicidal effect by soil treatment (Table 19, symbol H); assay type: in vivo, barnyard grass (Echinochloa crus-galli); details: amount of applied herbicide 320 g/ha
# Procedure, shortened: (§1)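 Soil-surface application: an emulsion agent diluted with water to the predetermined dose is sprayed uniformly over seeds lying under roughly 1.5 cm of sterilized diluvial soil. Boxes stay in a greenhouse at 25° C. to 30° C. Three weeks later, each species is graded on previously defined criteria.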
# windgrass [2] = test: Test Example 4: herbicidal effect by soil treatment (Table 19, symbol L); assay type: in vivo, windgrass (Apera spica-venti); details: amount of applied herbicide 320 g/ha
# Procedure, shortened: as §1
# rice flat sedge = test: Test Example 3: herbicidal effect by foliage application, Wagner pot (Table 18, symbol E); assay type: in vivo, rice flat sedge (Cyperus iria); details: 320 g/ha
# Procedure, shortened: (§2)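 Plants were sown in alluvial soil held under 0.1–0.5 cm standing water and grown 14 days in a greenhouse at 25–30 °C. An emulsifiable formulation, water-diluted to the set dose, was then sprayed onto the foliage, and effects were scored three weeks later using previously defined criteria.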
# redroot pigweed [3] = test: Test Example 5: herbicidal effect by foliage application, plastic box (Table 20, symbol N); assay type: in vivo, redroot pigweed (Amaranthus retroflexus); details: foliage application, 320 g/ha, three weeks after application
# Procedure, shortened: (§3)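 Sow seeds spot-wise in sterilized diluvial soil; cover with ~1.5 cm soil. Grow 14 days in greenhouse, 25° C. to 30° C. Spray foliage with emulsion diluted to predetermined amount. Rate effect after 3 weeks.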
# barnyard grass [4] = test: Test Example 5: herbicidal effect by foliage application, plastic box (Table 20, symbol H); assay type: in vivo, barnyard grass (Echinochloa crus-galli); details: foliage application, 320 g/ha, three weeks after application
# Procedure, shortened: as §3
# persian speedwell [5] = test: Test Example 4: herbicidal effect by soil treatment (Table 19, symbol R); assay type: in vivo, Persian speedwell (Veronica persica); details: amount of applied herbicide 320 g/ha
# Procedure, shortened: as §1
# green foxtail [6] = test: Test Example 4: herbicidal effect by soil treatment (Table 19, symbol G); assay type: in vivo, green foxtail (Setaria viridis); details: amount of applied herbicide 320 g/ha
# Procedure, shortened: as §1
# Italian ryegrass [7] = test: Test Example 5: herbicidal effect by foliage application, plastic box (Table 20, symbol K); assay type: in vivo, Italian ryegrass (Lolium multiflorum); details: foliage application, 320 g/ha, three weeks after application
# Procedure, shortened: as §3
# southern crabgrass [8] = test: Test Example 5: herbicidal effect by foliage application, plastic box (Table 20, symbol F); assay type: in vivo, southern crabgrass (Digitaria ciliaris); details: foliage application, 320 g/ha, three weeks after application
# Procedure, shortened: as §3
# Chinese sprangletop = test: Test Example 3: herbicidal effect by foliage application, Wagner pot (Table 18, symbol D); assay type: in vivo, chinese sprangletop (Leptochloa chinensis); details: 320 g/ha
# Procedure, shortened: as §2
# velvetleaf [9] = test: Test Example 4: herbicidal effect by soil treatment (Table 19, symbol M); assay type: in vivo, velvetleaf (Abutilon theophrasti); details: amount of applied herbicide 320 g/ha
# Procedure, shortened: as §1
# lambsquarters [10] = test: Test Example 4: herbicidal effect by soil treatment (Table 19, symbol O); assay type: in vivo, lambsquarters (Chenopodium album); details: amount of applied herbicide 320 g/ha
# Procedure, shortened: as §1
# redroot pigweed [11] = test: Test Example 4: herbicidal effect by soil treatment (Table 19, symbol N); assay type: in vivo, redroot pigweed (Amaranthus retroflexus); details: amount of applied herbicide 320 g/ha
# Procedure, shortened: as §1
# windgrass [12] = test: Test Example 5: herbicidal effect by foliage application, plastic box (Table 20, symbol L); assay type: in vivo, windgrass (Apera spica-venti); details: foliage application, 320 g/ha, three weeks after application
# Procedure, shortened: as §3
# lambsquarters [13] = test: Test Example 5: herbicidal effect by foliage application, plastic box (Table 20, symbol O); assay type: in vivo, lambsquarters (Chenopodium album); details: foliage application, 320 g/ha, three weeks after application
# Procedure, shortened: as §3
# chickweed [14] = test: Test Example 4: herbicidal effect by soil treatment (Table 19, symbol P); assay type: in vivo, common chickweed (Stellaria media); details: amount of applied herbicide 320 g/ha
# Procedure, shortened: as §1
# wild oat [15] = test: Test Example 4: herbicidal effect by soil treatment (Table 19, symbol I); assay type: in vivo, wild oat (Avena fatua); details: amount of applied herbicide 320 g/ha
# Procedure, shortened: as §1
# southern crabgrass [16] = test: Test Example 4: herbicidal effect by soil treatment (Table 19, symbol F); assay type: in vivo, southern crabgrass (Digitaria ciliaris); details: amount of applied herbicide 320 g/ha
# Procedure, shortened: as §1
# Italian ryegrass [17] = test: Test Example 4: herbicidal effect by soil treatment (Table 19, symbol K); assay type: in vivo, Italian ryegrass (Lolium multiflorum); details: amount of applied herbicide 320 g/ha
# Procedure, shortened: as §1
# wild oat [18] = test: Test Example 5: herbicidal effect by foliage application, plastic box (Table 20, symbol I); assay type: in vivo, wild oat (Avena fatua); details: foliage application, 320 g/ha, three weeks after application
# Procedure, shortened: as §3
# persian speedwell [19] = test: Test Example 5: herbicidal effect by foliage application, plastic box (Table 20, symbol R); assay type: in vivo, Persian speedwell (Veronica persica); details: foliage application, 320 g/ha, three weeks after application
# Procedure, shortened: as §3
# chickweed [20] = test: Test Example 5: herbicidal effect by foliage application, plastic box (Table 20, symbol P); assay type: in vivo, common chickweed (Stellaria media); details: foliage application, 320 g/ha, three weeks after application
# Procedure, shortened: as §3
# green foxtail [21] = test: Test Example 5: herbicidal effect by foliage application, plastic box (Table 20, symbol G); assay type: in vivo, green foxtail (Setaria viridis); details: foliage application, 320 g/ha, three weeks after application
# Procedure, shortened: as §3
# velvetleaf [22] = test: Test Example 5: herbicidal effect by foliage application, plastic box (Table 20, symbol M); assay type: in vivo, velvetleaf (Abutilon theophrasti); details: foliage application, 320 g/ha, three weeks after application
# Procedure, shortened: as §3
# blackgrass [23] = test: Test Example 5: herbicidal effect by foliage application, plastic box (Table 20, symbol J); assay type: in vivo, blackgrass (Alopecurus myosuroides); details: foliage application, 320 g/ha, three weeks after application
# Procedure, shortened: as §3
# barnyard grass [24] = test: Test Example 3: herbicidal effect by foliage application, Wagner pot (Table 18, symbol H); assay type: in vivo, barnyard grass (Echinochloa crus-galli); details: 320 g/ha
# Procedure, shortened: as §2
# blackgrass [25] = test: Test Example 4: herbicidal effect by soil treatment (Table 19, symbol J); assay type: in vivo, blackgrass (Alopecurus myosuroides); details: amount of applied herbicide 320 g/ha
# Procedure, shortened: as §1
compound,measurement,setting,value
COc1ccc(F)cc1-c1sc2ccccc2c1-c1c(O)c(C)nn(C)c1=O [1-058],"herbicidal effect rating, H: barnyard grass",barnyard grass [1],3 (Herbicidal rate of 40% or more and less than 70%)
same,"herbicidal effect rating, L: windgrass",windgrass [2],0 (Herbicidal rate of 5% or less (almost no effect))
same,"herbicidal effect on E (rice flat sedge), rating 0-5",rice flat sedge,5 (Herbicidal rate of 90% or more (almost completely withered))
same,"herbicidal effect grade, N: redroot pigweed",redroot pigweed [3],2 (Herbicidal rate of 20% or more and less than 40%)
same,"herbicidal effect grade, H: barnyard grass",barnyard grass [4],3 (Herbicidal rate of 40% or more and less than 70%)
same,"herbicidal effect rating, R: persian speedwell",persian speedwell [5],4 (Herbicidal rate of 70% or more and less than 90%)
same,"herbicidal effect rating, G: green foxtail",green foxtail [6],5 (Herbicidal rate of 90% or more (almost completely withered))
same,"herbicidal effect grade, K: Italian ryegrass",Italian ryegrass [7],4 (Herbicidal rate of 70% or more and less than 90%)
same,"herbicidal effect grade, F: southern crabgrass",southern crabgrass [8],3 (Herbicidal rate of 40% or more and less than 70%)
same,"herbicidal effect on D (Chinese sprangletop), rating 0-5",Chinese sprangletop,3 (Herbicidal rate of 40% or more and less than 70%)
same,"herbicidal effect rating, M: velvetleaf",velvetleaf [9],0 (Herbicidal rate of 5% or less (almost no effect))
same,"herbicidal effect rating, O: lambsquarters",lambsquarters [10],3 (Herbicidal rate of 40% or more and less than 70%)
same,"herbicidal effect rating, N: redroot pigweed",redroot pigweed [11],2 (Herbicidal rate of 20% or more and less than 40%)
same,"herbicidal effect grade, L: windgrass",windgrass [12],4 (Herbicidal rate of 70% or more and less than 90%)
same,"herbicidal effect grade, O: lambsquarters",lambsquarters [13],0 (Herbicidal rate of 5% or less (almost no effect))
same,"herbicidal effect rating, P: chickweed",chickweed [14],5 (Herbicidal rate of 90% or more (almost completely withered))
same,"herbicidal effect rating, I: wild oat",wild oat [15],1 (Herbicidal rate of 5% or more and less than 20%)
same,"herbicidal effect rating, F: southern crabgrass",southern crabgrass [16],2 (Herbicidal rate of 20% or more and less than 40%)
same,"herbicidal effect rating, K: Italian ryegrass",Italian ryegrass [17],0 (Herbicidal rate of 5% or less (almost no effect))
same,"herbicidal effect grade, I: wild oat",wild oat [18],1 (Herbicidal rate of 5% or more and less than 20%)
same,"herbicidal effect grade, R: persian speedwell",persian speedwell [19],4 (Herbicidal rate of 70% or more and less than 90%)
same,"herbicidal effect grade, P: chickweed",chickweed [20],5 (Herbicidal rate of 90% or more (almost completely withered))
same,"herbicidal effect grade, G: green foxtail",green foxtail [21],4 (Herbicidal rate of 70% or more and less than 90%)
same,"herbicidal effect grade, M: velvetleaf",velvetleaf [22],1 (Herbicidal rate of 5% or more and less than 20%)
same,"herbicidal effect grade, J: blackgrass",blackgrass [23],4 (Herbicidal rate of 70% or more and less than 90%)
same,"herbicidal effect on H (barnyard grass), rating 0-5",barnyard grass [24],4 (Herbicidal rate of 70% or more and less than 90%)
same,"herbicidal effect rating, J: blackgrass",blackgrass [25],2 (Herbicidal rate of 20% or more and less than 40%)
